In patent US12691063B1, “Methods of using radiprodil in the treatment of disorders” (GRIN Therapeutics, Inc., priority 2023, dated 2026):
Values joined by “and” are separate entries in the source; they are usually repeats but may differ in a detail not shown here. Equal entries are not always repeated.

How the values were obtained:
[1] = tested on: patients with GRIN-related neurodevelopmental disorder and GoF variants, countable motor seizures (CMS); experiment: Open-label phase 1B study, seizure cohort; format: in vivo, human
Description: Investigational Product (IP): Radiprodil. This example describes an open-label, multicenter phase 1B study being conducted to evaluate the safety, tolerability, and pharmacokinetics (PK) of multiple individually titrated doses of radiprodil and to assess the treatment effect on seizures in participants with drug-resistant seizures caused by gain-of-function (GoF) variants in the GRIN1, GRIN2A, GRIN2B, or GRIN2D genes (GRIN2B GoF variants in the US only).
(§1) This is a global, open-label, multicenter, phase 1B study to evaluate the safety, tolerability, and PK of multiple individually titrated doses of radiprodil and to assess the treatment effect on seizures and behavioral symptoms in 2 cohorts of pediatric participants: 1 cohort of participants with drug resistant seizures (with or without behavioral symptoms) (Cohort 1) and 1 cohort of participants with behavioral symptoms (but no qualifying seizures) (Cohort 2) caused by GoF variants in the GRIN1, 2A, 2B, or 2D genes (GRIN2B GoF variants only in the US). These GoF variants are gene mutations that cause an increased sensitivity of NMDA receptors to glutamate or through decreased inhibition by magnesium, altered affinity to glycine, or other relevant changes considered to increase NMDA transmission. Drug-resistant seizures are defined as a failure to respond to at least 2 antiseizure medication (ASM) therapies taken at adequate doses for an appropriate duration with assured medication adherence as determined by the treating physician. Participants with seizures to be enrolled in the first cohort should have at least 1 observable motor seizure per week and ≥4 observable motor seizures in the prospective 4-week Observation Period.
A seizure cohort of patients from 6 months to 12 years of age with known GoF variants confirmed via method described in Myers, et al., Hum Mol Genetics. 2023, 32:2857-2871, was enrolled. The patients had drug-resistant seizures with or without behavioral symptoms. Patients also had ≥1 weekly countable motor seizure (CMS) with ≥4 generalized or focal seizures during the observation period. Motor seizures included drop seizures; generalized onset seizures included tonic-clonic, tonic, bilateral clonic, atonic, myoclonic-atonic, and myoclonic-tonic-clonic seizures; and focal seizures included seizures with bilateral hyperkinetic motor features and clonic seizures.
Primary endpoints included safety, tolerability, and radiprodil plasma concentrations. Key secondary endpoints (aka, change from baseline in observable daily CMS frequency using an electronic diary (eDiary)), included ≥50%, ≥90%, and 100% reductions from baseline in seizure frequency; proportion of seizure-free days; and Clinical Global Impressions of Change (CGI-C) and Caregiver Global Impressions of Change (CaGI-C), from baseline to the end of the maintenance period.

[2] = tested on: PTZ-induced convulsions; experiment: Juvenile PTZ rat model of generalized clonic-tonic seizures; format: in vivo; details: 10 mg/kg; postnatal day 12 and postnatal day 18 rats
Method: (§2) Radiprodil anticonvulsant efficacy was specifically tested in rats at different time points during postnatal development, using pentylenetetrazole (PTZ) as a convulsant, to induce generalized clonic-tonic seizures. The activity of radiprodil in this juvenile PTZ rat model was tested up to 30 mg/kg, showing efficacy at a dose of 1 mg/kg. The calculated free plasma fraction of an orally administered 1 mg/kg dose is expected to give around 60% occupancy of the NR2B receptor, based on an ex-vivo occupancy study in rodents and assuming a 1:1 brain to plasma ratio, see below for further details.

[3] = target: T1, NR2B receptor (Rattus norvegicus, UniProt P35439+Q00960); experiment: NR2B occupancy calculated from ex-vivo occupancy study in rodents; details: po; orally administered 1 mg/kg dose; calculated free plasma fraction; 1:1 brain to plasma ratio assumed
T1 construct: from tissue; host or cells: rodent brain (ex vivo)
T1 sequence (Q00960 27-1482, other chains not shown): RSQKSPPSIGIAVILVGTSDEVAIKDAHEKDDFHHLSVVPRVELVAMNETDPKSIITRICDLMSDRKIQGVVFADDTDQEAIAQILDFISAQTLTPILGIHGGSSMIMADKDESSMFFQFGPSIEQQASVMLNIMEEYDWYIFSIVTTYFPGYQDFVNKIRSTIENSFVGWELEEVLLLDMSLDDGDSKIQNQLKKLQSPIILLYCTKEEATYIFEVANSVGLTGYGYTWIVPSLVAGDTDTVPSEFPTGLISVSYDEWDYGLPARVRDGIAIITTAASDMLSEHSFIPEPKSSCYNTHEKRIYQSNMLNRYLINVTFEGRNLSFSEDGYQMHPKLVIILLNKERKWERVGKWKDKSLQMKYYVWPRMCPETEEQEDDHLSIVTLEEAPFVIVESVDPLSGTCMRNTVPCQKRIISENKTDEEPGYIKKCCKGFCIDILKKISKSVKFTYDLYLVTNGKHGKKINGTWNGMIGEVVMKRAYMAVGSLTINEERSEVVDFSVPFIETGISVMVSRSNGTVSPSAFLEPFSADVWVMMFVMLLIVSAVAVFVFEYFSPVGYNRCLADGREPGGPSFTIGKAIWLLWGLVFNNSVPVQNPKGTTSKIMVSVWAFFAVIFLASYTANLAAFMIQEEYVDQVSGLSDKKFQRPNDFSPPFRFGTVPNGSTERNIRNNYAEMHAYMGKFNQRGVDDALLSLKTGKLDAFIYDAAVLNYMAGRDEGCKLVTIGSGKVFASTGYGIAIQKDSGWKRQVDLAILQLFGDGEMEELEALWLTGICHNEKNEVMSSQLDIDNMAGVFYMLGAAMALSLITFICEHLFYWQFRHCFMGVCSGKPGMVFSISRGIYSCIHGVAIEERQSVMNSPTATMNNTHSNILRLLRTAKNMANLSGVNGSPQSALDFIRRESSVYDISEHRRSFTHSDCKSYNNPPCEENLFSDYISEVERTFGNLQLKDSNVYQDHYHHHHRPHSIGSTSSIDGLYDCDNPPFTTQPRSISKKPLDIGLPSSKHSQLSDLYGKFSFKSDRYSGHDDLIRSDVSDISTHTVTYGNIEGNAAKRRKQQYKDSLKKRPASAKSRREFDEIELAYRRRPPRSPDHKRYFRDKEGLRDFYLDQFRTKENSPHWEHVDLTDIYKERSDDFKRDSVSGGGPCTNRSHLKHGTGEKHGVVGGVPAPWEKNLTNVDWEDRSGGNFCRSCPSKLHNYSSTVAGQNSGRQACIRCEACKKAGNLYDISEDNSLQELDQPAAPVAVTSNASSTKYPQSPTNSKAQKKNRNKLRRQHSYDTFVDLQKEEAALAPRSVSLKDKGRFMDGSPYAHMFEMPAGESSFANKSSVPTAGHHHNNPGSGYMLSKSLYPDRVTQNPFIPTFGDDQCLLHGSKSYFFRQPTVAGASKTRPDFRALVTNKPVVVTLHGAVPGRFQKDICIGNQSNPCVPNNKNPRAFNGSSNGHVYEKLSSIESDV
Method: as §2

[4] = 4-week juvenile rat toxicology study; format: in vivo; details: 0.05 mg/kg bid starting dose
Method: The starting dose for each participant enrolled in the study will be set at 0.05 mg/kg bid. […] In patients with neuropathic pain, a total daily dose of 135 mg (45 mg tid) up to 14 weeks has been previously administered. […] Dose Escalation
For the sites not located in the US, based on the dedicated PBPK model, the increment will be a dose expected to give no more than a 2.5-fold higher plasma concentration.

[5] = tested on: patients with GRIN-related neurodevelopmental disorder and GoF variants, behavioral symptoms; experiment: Open-label phase 1B study, behavioral cohort; format: in vivo, human
Description: as §1
A behavioral cohort of patients from 6 months to 12 years of age with known GoF variants confirmed via method described in Myers, et al., Hum Mol Genetics. 2023, 32:2857-2871, was enrolled. […] Motor seizures included drop seizures; generalized onset seizures included tonic-clonic, tonic, bilateral clonic, atonic, myoclonic-atonic, and myoclonic-tonic-clonic seizures; and focal seizures included seizures with bilateral hyperkinetic motor features and clonic seizures.

[6] = all unrelated to radiprodil treatment

Question: For `O=C(Nc1ccc2[nH]c(=O)oc2c1)C(=O)N1CCC(Cc2ccc(F)cc2)CC1` [radiprodil, Radiprodil], which “patients seizure-free during 80% of days” value ([1]; 8-week maintenance period) is on record?
Answer: 6 of 7

Question: And the tolerability ([1]; Example 4)?
Answer: generally well-tolerated

Question: And the “Any TEAE” value ([1]; Seizure Cohort (n = 8))?
Answer: 8 (100) n (%)

Question: And the “TEAE Abnormal behavior” value ([1]; Seizure Cohort (n = 8))?
Answer: 1 (12.5) n (%)

Question: What about the “TEAE Agitation” value ([1]; Seizure Cohort (n = 8)) of the same molecule?
Answer: 1 (12.5) n (%)

Question: What about the “TEAE Cough” value ([1]; Seizure Cohort (n = 8)) of the same molecule?
Answer: 2 (25.0) n (%)

Question: And the “TEAE Diarrhoea” value ([1]; Seizure Cohort (n = 8))?
Answer: 2 (25.0) n (%)

Question: And the “TEAE Dystonia” value ([1]; Seizure Cohort (n = 8))?
Answer: 2 (25.0) n (%)

Question: What about the “TEAE Fatigue” value ([1]; Seizure Cohort (n = 8)) of the same molecule?
Answer: 1 (12.5) n (%)

Question: What about the “TEAE Gastroenteritis” value ([1]; Seizure Cohort (n = 8)) of the same molecule?
Answer: 2 (25.0) n (%)

Question: What about the “TEAE Pyrexia” value ([1]; Seizure Cohort (n = 8)) of the same molecule?
Answer: 4 (50.0) n (%)

Question: And the “TEAE Respiratory tract infection” value ([1]; Seizure Cohort (n = 8))?
Answer: 2 (25.0) n (%)

Question: And the “seizure cohort patients with reductions from baseline in CMS frequency” value ([1]; after radiprodil treatment)?
Answer: 6 of the 7 and 6 of 7

Question: What about the “patients who experienced SAEs” value [1, 6] of the same molecule?
Answer: Three

Question: And the “Caregiver Global Impressions of Change (CaGI-C)” value ([1]; caregivers, seizure cohort)?
Answer: clinical improvement in most patients

Question: And the “Clinical Global Impressions of Change (CGI-C)” value ([1]; clinicians, seizure cohort)?
Answer: clinical improvement in most patients

Question: And the “reduction in CMS frequency in most patients” value ([1]; seizure cohort)?
Answer: ≥ 50%

Question: What about the “tonic phases of PTZ-induced convulsions” value [2] of the same molecule?
Answer: completely blocked

Question: What about the receptor occupancy at 1 mg/kg [3] of the same molecule?
Answer: ~60%

Question: And the “exposure level (total Cmax and AUC) lower than NOAEL exposure in juvenile rat toxicology study” value [4]?
Answer: more than 20 fold

Question: And the “Any TEAE” value ([5]; Behavioral Cohort (n = 7))?
Answer: 6 (85.7) n (%)

Question: What about the “TEAE Abnormal behavior” value ([5]; Behavioral Cohort (n = 7)) of the same molecule?
Answer: 2 (28.6) n (%)

Question: What about the “TEAE Agitation” value ([5]; Behavioral Cohort (n = 7)) of the same molecule?
Answer: 2 (28.6) n (%)

Question: And the “TEAE Cough” value ([5]; Behavioral Cohort (n = 7))?
Answer: 1 (14.3) n (%)

Question: And the “TEAE Diarrhea” value ([5]; Behavioral Cohort (n = 7))?
Answer: 2 (28.6) n (%)

Question: And the “TEAE Dystonia” value ([5]; Behavioral Cohort (n = 7))?
Answer: 1 (14.3) n (%)

Question: What about the “TEAE Fatigue” value ([5]; Behavioral Cohort (n = 7)) of the same molecule?
Answer: 2 (28.6) n (%)

Question: And the “TEAE Gastroenteritis” value ([5]; Behavioral Cohort (n = 7))?
Answer: 1 (14.3) n (%)

Question: What about the “TEAE Pyrexia” value ([5]; Behavioral Cohort (n = 7)) of the same molecule?
Answer: 1 (14.3) n (%)

Question: And the “TEAE Respiratory tract infection” value ([5]; Behavioral Cohort (n = 7))?
Answer: 2 (28.6) n (%)

Question: What about the tolerability ([5]; Example 9) of the same molecule?
Answer: generally well-tolerated

Question: And the “patients who experienced SAEs” value [5, 6]?
Answer: Three

Question: What about the “Caregiver Global Impressions of Change (CaGI-C)” value ([5]; caregivers, behavioral cohort) of the same molecule?
Answer: clinical improvement in most patients

Question: And the “Clinical Global Impressions of Change (CGI-C)” value ([5]; clinicians, behavioral cohort)?
Answer: clinical improvement in most patients
